The values below come from paper PMC10179503, “Using Machine Learning and Molecular Docking to Leverage Urease Inhibition Data for Virtual Screening” (International Journal of Molecular Sciences, 2023).

The target of the first assay is T1, jack bean urease (Canavalia ensiformis, UniProt P07374).
T1 construct: nickel metalloenzyme; full length 840 residues, native oligomer a hexamer (known biology)
T1 sequence (P07374 whole entry): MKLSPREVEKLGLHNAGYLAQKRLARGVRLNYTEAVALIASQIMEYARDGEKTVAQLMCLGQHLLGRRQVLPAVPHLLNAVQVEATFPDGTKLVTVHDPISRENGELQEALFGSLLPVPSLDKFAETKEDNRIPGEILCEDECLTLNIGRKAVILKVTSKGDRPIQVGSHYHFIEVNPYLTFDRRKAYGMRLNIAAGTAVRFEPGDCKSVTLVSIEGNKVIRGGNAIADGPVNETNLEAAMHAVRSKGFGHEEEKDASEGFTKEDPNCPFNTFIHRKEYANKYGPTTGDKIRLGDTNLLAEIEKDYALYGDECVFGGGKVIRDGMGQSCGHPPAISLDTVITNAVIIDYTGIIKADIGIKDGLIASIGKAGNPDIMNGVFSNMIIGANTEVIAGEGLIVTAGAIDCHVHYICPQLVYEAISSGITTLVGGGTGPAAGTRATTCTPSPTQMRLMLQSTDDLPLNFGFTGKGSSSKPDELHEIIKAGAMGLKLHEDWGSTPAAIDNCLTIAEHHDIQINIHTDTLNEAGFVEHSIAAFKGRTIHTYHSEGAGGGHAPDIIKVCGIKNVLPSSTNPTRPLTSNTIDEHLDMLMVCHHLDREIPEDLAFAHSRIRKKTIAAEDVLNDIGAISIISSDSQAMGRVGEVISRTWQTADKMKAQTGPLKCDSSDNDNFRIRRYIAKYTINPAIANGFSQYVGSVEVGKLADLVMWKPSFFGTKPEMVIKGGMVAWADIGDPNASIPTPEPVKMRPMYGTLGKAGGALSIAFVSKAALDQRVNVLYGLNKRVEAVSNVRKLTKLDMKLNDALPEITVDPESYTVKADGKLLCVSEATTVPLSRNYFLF
The assay can be described thus: indophenol (Weatherburn) ammonia release, […] nm. It counts as biochemical. The note with it: read-out: % at 1 mM or IC50 ± SEM.
With `NC(N)=S` [Thiourea, reference compound], the IC50 stood at 144 ± 5.08 µM.
Still for that read-out and setting: next, `O=S(=O)(NOCc1ccccc1)c1ccccc1` [compound 2, 2]: 100 ± 10.2 µM.
The same measure, in the same setting: to `[O-][S+](NOCc1ccccc1)c1ccccc1` (stereo not drawn) [compound 3, 3] belongs 6.15 ± 0.99 µM.
On to `NOC(=O)c1ccccc1` [compound 5, 5], for which the IC50 stood at 155 ± 2.02 µM.

For a further assay, the target named is T1, jack bean urease. Put plainly: indophenol (Weatherburn) ammonia release, […] nm. It is filed as biochemical. As to conditions: urea (20 mM stock, 45 μL), PBS, 30 °C, 10 min.
On to `Cc1ccc(S(=O)(=O)NOCc2ccccc2)cc1` [compound 1, 1], for which the “% at 1 mM or IC50 ± SEM (μM)” value was found to be 43.85%.
For `O=C(ON[S+]([O-])c1ccccc1)c1ccccc1` (stereo not drawn) [compound 4, 4], the “% at 1 mM or IC50 ± SEM (μM)” value is given as 0%.
